Assay results as given in patent US10894777B2, “TG2 inhibitor piperazine compounds and uses thereof” (UNIVERSITY OF OTTAWA, priority 2016, dated 2021).

Tests used:
endogenous TG2 = target: T1, endogenous TG2 (Homo sapiens, UniProt P21980); test: TG2 GTP-agarose pull-down assay, HaCaT cells; format: cell-based; settings: 48 h
T1 construct: endogenous in cells; host or cells: HaCaT
T1 sequence (P21980 1-687): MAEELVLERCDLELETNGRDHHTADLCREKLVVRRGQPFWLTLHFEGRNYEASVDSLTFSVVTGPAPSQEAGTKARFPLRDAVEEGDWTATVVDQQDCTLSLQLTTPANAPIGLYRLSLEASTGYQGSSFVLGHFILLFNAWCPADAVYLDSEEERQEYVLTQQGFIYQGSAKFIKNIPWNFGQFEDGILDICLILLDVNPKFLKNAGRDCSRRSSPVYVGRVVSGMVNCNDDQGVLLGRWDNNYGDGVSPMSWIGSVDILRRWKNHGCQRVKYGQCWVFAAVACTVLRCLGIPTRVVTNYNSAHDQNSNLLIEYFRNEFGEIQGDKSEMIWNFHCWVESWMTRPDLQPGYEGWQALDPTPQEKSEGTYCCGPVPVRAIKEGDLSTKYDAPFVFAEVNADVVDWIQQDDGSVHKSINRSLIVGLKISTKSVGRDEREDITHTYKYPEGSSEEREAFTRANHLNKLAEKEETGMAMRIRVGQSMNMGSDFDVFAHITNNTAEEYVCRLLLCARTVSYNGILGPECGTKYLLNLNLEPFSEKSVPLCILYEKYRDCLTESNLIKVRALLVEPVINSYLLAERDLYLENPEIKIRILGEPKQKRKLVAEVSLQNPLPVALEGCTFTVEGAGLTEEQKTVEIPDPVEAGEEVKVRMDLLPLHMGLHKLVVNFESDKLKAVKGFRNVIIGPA
Procedure: HaCaT cells were electroporated with mCer-TG2 or mCer-TG2-YAP and then treated with 0 or 5 μM of the indicated inhibitor and fluorescent lifetime was monitored. […] HaCaT cells were preloaded with fluorescein cadaverine, treated with the indicated inhibitor and then challenged with calcium ionophore, washed and assayed for FC incorporation. […] HaCaT were incubated for 48 h with the indicated inhibitor and extracts were prepared and incubated with GTP-agarose beads to measure TG2 binding to GTP agarose. The beads were then washed, boiled in Laemmli buffer and electrophoresed for immunoblot detection of TG2. Cell equivalent quantities of total and bound samples were electrophoresed to facilitate comparison of GTP bound versus total. […] Experiments were performed as described in FIGS. 31 (F) and (G).

[1] = tested on: TG2 fusion protein mCer-TG2-YFP; test: Fluorescence lifetime imaging (FLIM) of mCer-TG2-YFP conformation, SCC-13 cells; format: cell-based, human; settings: NC9, VA4, VA5 0-20 μM 24 or 48 h; Cp4d 0-10 μM 48 h
Procedure: We monitored the impact of each inhibitor on intracellular TG2 structure using FLIM (Fluorescence Lifetime Imaging Microscopy). FLIM is a quantitative method of assessing fluorescence lifetime that measures energy transfer between donor and accept probes Fluorescence lifetime is measured in nanoseconds and a short lifetime correlates with close contact between probes (FIG. 29B). An advantage of this method is that fluorescent lifetimes are independent of probe concentration. In the present experiments, we expressed in cells a TG2 fusion protein in which the donor probe (mCER) is fused to the N-terminus and the acceptor probe (YFP) at the C-terminus (FIG. 29B). mCER and YFP comprise an ideal donor/acceptor pair; the donor probe is excited by laser illumination and energy transfer to the acceptor is monitored. The fluorescent lifetime is shorter when TG2 is in the closed conformation which brings mCER and YFP close together. SCC-13 cells were electroporated with empty vector, mCER-TG2 or mCER-TG2-YFP.
Fluorescence lifetime imaging. Fluorescence lifetime images were acquired using FLIM system (Alba 5 from ISS). […] Emission was observed through bandpass filter 480/35 nm (Chroma Technology) and detected by a photomultiplier H7422-40 (Hamamatsu). FLIM data were acquired using time-domain modality (SPC-830 TCSPC module from Becker and Hickl GmbH). […] To account for intensity heterogeneity within single intensity images, two to five consecutive scans were acquired and summed to build FLIM intensity image for lifetime analysis. […] FLIM data were analyzed using VistaVision Suite software (Vista v.213 from ISS). Lifetime images were generated by fitting data using single exponential intensity decay model. Intensity threshold for lifetime analysis was set of at least 3-fold above the intensity of dim cells and fitting procedure was performed for binned pixels at level of 3 (7×7 pixels). Lifetime distribution within image is represented with histogram showing pixel frequency of specific lifetime. The average lifetime values with standard deviations were calculated based on all processed pixels in lifetime image. FRET values were calculated according to the formula ET=1−(τDA/τD), where τD is the lifetime of donor (mCer-TG2) and τDA is the lifetime of donor-acceptor pair (mCer-TG2—YFP).

TG2 = target: T2, TG2 (Homo sapiens, UniProt P21980); test: In situ TG2 transamidase activity assay (fluorescein cadaverine incorporation), SCC-13 cells; format: cell-based; parameters: endogenous in cells; host or cells: SCC-13; settings: for FC incorporation (TG2 transamidase activity): 20 μM 30 min, then A23187 90 min
T2 sequence (P21980 1-687): T1 sequence (P21980 1-687)
Procedure: Insitu TG2 activity assay. Cells (40,000) were plated in 24-well attachment dishes in spheroid media and grown until 50% confluent. Fluorescein cadaverine (FC) was added in 2 mL of serum-free medium at a final concentration of 20 μM and incubated for 4 hours. The wells were washed twice with serum-free spheroid medium, and then 2 mL of fresh serum-free medium was added containing 0-20 μM NC9. After 30 min, the wells were supplemented with 10 μM A23187. Cells were incubated for an additional 90 min and then washed three times with Ca^++/Mg^++-free HBSS, fixed with formalin, and washed with phosphate-buffered saline and imaged to detect fluorescein.
In situ TG2 transamidase activity assay. Cells (40,000) were plated in 24-well attachment dishes in spheroid media and grown until 50% confluent. FC was added in 2 ml of serum-free medium at a final concentration of 20 μM and incubated for 4 h. […] After 30 min, the wells were supplemented with 10 NM A23187, a calcium ionophore.

SCC-13 cells = test: Migration (scratch wound closure) assay, SCC-13 cells; format: cell-based, human; settings: for cell migration (scratch wound closure): 0-12 h
Procedure: Migration assay. SCC13-Control-shRNA or SCC13-TG2-shRNA2 cells (2×10^6) were plated in 10 cm dishes and grown as monolayer cultures in spheroid medium until confluent. A 10 μl pipette tip was used to prepare areas void of cells and the dishes were washed to remove the dislodged cells. Images were collected, at 0-18 h after the scratch using the 10× objective, and the width of the opening was measured as a function of time as an index of cell migration potential.
Migration assay. Cells (2 million) were plated in 10 cm dishes and grown as monolayer cultures in spheroid medium until confluent. A 10 μl pipette tip was used to prepare areas void of cells and the dishes were washed to remove the dislodged cells. The ability of the cells to close the scratch wounds was monitored at 0-18 h after the scratch using the 10× objective, and the width of the opening was measured as a function of time as an index of cell migration (Adhikary, G. et al., PLoS One 8:e84324, 2013).

Structure (SMILES) | TG2 GTP binding (endogenous TG2) | fluorescence lifetime of mCer-TG2-YFP [1] | FC incorporation (TG2 transamidase activity) (TG2) | TG2 transamidase activity (FC incorporation) (TG2; 20 μM NC9, calcium ionophore) | cell migration (scratch wound closure) (SCC-13 cells) | cell migration (SCC-13 cells; 20 μM, 0-18 h)
C=CC(=O)NCCCC[C@H](NC(=O)OCc1ccccc1)C(=O)NCCOCCOCCNS(=O)(=O)c1cccc2c(N(C)C)cccc12 [NC9] | reduced TG2 GTP binding | markedly increased | drastically reduced | reduced | inhibited cell migration | reduced
C=CC(=O)NCCCC[C@H](NC(=O)OCc1ccccc1)C(=O)N1CCN(S(=O)(=O)c2cccc3c(N(C)C)cccc23)CC1 [VA4, (S)-benzyl(6-acrylamido-1-(4-((5-(dimethylamino)naphthalen-1-yl)sulfonyl)piperazin-1-yl)-1-oxohexan-2-yl)carbamate] | reduced TG2 GTP binding | markedly increased | drastically reduced | – | inhibited cell migration | –
C=CC(=O)NCCCC[C@H](NC(=O)OCc1ccccc1)C(=O)N1CCN(C(=O)c2cc3ccc(O)cc3oc2=O)CC1 [VA5, (S)-Benzyl(6-acrylamido-1-(4-(7-hydroxy-2-oxo-2H-chromene-3-carbonyl)piperazin-1-yl)-1-oxohexan-2-yl)carbamate] | reduced TG2 GTP binding | markedly increased | drastically reduced | – | inhibited cell migration | –
